The nature of series [1]: Unbound brain-to-plasma concentration ratio in rat at 2.5 uM incubated for 4 hrs by equilibrium dialysis method. It is filed as ADME, cell-free. The conditions noted are these: brain and plasma (unbound), read-out: K(p,uu,brain). (Equilibrium dialysis compares concentrations on both sides of a semipermeable membrane.)
Series [2] can be described thus: Unbound brain-to-plasma concentration ratio in non-human primates administered orally and measured after 120 mins by LC/MS/MS analysis. It is filed as ADME. The conditions noted are these: po, read-out: K(p,uu,brain).
The nature of series [3]: Unbound brain-to-plasma concentration ratio in CD rat 1 to 100 mg/kg, po measured after 120 mins by LC/MS/MS analysis. It is filed as ADME, organism-based. As to conditions: brain and plasma (unbound), dose 1-100 mg/kg, read-out: K(p,uu,brain); call rule not given here.
A short description of series [4]: In vivo inhibition of LRRK2 in CD rat assessed as reduction in phosphorylation at Ser935 residue in striatum at 10 mg/kg, po measured after 2 hrs by MSD assay. It is filed as functional.
Series [5] is described as follows: Intrinsic clearance in Rhesus monkey at 0.1 mg/kg, iv by LC-MS/MS analysis. Type of series: ADME, organism-based, Macaca mulatta. As to conditions: in vivo.
For series [6], the system named is rat Mdr1a (P-gp). In words: Efflux ratio of apparent permeability across basolateral to apical side over apical to basolateral side in rat Mdr1a-transfected pig LLC-PK1 cells at 0.1 to 1 uM measured after 3 hrs by LC/MS/MS analysis. Type of series: ADME, cell-based, Sus scrofa. The conditions noted are these: dose 0.1-1 µM.
Series [7] deals with rat Mdr1a (P-gp). Description: Apparent permeability from apical to basolateral side in rat Mdr1a-transfected pig LLC-PK1 cells at 0.1 to 1 uM measured after 3 hrs by LC/MS/MS analysis. Type of series: ADME, cell-based, Sus scrofa. The conditions noted are these: dose 0.1-1 µM.
Series [8] in a line: Intrinsic clearance in human hepatocytes at 0.3 uM incubated for 90 mins by LC/MS/MS analysis. It is filed as ADME, cell-based, Hepatocyte. As to conditions: read-out: CLH.
Series [9] is described as follows: Intrinsic clearance in rat hepatocytes at 0.3 uM incubated for 90 mins by LC/MS/MS analysis. Type of series: ADME, cell-based, Hepatocyte. As to conditions: read-out: CLH.
A short description of series [10]: Total plasma clearance in Wistar Han rat at 2 mg/kg, iv by LC-MS/MS analysis. Type of series: ADME, organism-based.
A short description of series [11]: Intrinsic clearance in Wistar Han rat at 2 mg/kg, iv by LC-MS/MS analysis. Type of series: ADME, organism-based. As to conditions: in vivo.
Series [12] can be described thus: MRT in Wistar Han rat at 2 mg/kg, iv by LC-MS/MS analysis. As to conditions: in vivo. It is filed as ADME, organism-based.
Series [13] in a line: Intrinsic clearance in dog hepatocytes at 0.3 uM incubated for 90 mins by LC/MS/MS analysis. Type of series: ADME, cell-based, Canis lupus familiaris, Hepatocyte. The conditions noted are these: read-out: CLH.
Series [14] can be described thus: Total plasma clearance in Beagle dog at 0.25 mg/kg, iv by LC-MS/MS analysis. Type of series: ADME, organism-based, Canis lupus familiaris.
Series [15] in a line: Intrinsic clearance in Beagle dog at 0.25 mg/kg, iv by LC-MS/MS analysis. As to conditions: in vivo. Type of series: ADME, organism-based, Canis lupus familiaris.
Series [16] can be described thus: MRT in Beagle dog at 0.25 mg/kg, iv by LC-MS/MS analysis. Type of series: ADME, organism-based, Canis lupus familiaris. The conditions noted are these: in vivo.
The nature of series [17]: Oral bioavailability in Wistar Han rat at 10 mg/kg by LC-MS/MS analysis. As to conditions: in vivo. Type of series: ADME, organism-based.
Series [18] can be described thus: Oral bioavailability in Beagle dog at 0.5 mg/kg by LC-MS/MS analysis. It is filed as ADME, organism-based, Canis lupus familiaris. As to conditions: in vivo.
Series [19] deals with mouse Bcrp. Description: Efflux ratio of apparent permeability across basolateral to apical over apical to basolateral side in mouse Bcrp-transfected dog MDCK-II cells at 0.1 to 1 uM measured after 3 hrs by LC/MS/MS analysis. It is filed as ADME, cell-based, Canis lupus familiaris. The conditions noted are these: dose 0.1-1 µM.
The target of series [20] is Voltage-gated inwardly rectifying potassium channel KCNH2 (Homo sapiens, UniProt Q12809). In words: Inhibition of human ERG by voltage clamp assay. It is filed as toxicity.
Sequence of Voltage-gated inwardly rectifying potassium channel KCNH2 (Q12809 whole entry): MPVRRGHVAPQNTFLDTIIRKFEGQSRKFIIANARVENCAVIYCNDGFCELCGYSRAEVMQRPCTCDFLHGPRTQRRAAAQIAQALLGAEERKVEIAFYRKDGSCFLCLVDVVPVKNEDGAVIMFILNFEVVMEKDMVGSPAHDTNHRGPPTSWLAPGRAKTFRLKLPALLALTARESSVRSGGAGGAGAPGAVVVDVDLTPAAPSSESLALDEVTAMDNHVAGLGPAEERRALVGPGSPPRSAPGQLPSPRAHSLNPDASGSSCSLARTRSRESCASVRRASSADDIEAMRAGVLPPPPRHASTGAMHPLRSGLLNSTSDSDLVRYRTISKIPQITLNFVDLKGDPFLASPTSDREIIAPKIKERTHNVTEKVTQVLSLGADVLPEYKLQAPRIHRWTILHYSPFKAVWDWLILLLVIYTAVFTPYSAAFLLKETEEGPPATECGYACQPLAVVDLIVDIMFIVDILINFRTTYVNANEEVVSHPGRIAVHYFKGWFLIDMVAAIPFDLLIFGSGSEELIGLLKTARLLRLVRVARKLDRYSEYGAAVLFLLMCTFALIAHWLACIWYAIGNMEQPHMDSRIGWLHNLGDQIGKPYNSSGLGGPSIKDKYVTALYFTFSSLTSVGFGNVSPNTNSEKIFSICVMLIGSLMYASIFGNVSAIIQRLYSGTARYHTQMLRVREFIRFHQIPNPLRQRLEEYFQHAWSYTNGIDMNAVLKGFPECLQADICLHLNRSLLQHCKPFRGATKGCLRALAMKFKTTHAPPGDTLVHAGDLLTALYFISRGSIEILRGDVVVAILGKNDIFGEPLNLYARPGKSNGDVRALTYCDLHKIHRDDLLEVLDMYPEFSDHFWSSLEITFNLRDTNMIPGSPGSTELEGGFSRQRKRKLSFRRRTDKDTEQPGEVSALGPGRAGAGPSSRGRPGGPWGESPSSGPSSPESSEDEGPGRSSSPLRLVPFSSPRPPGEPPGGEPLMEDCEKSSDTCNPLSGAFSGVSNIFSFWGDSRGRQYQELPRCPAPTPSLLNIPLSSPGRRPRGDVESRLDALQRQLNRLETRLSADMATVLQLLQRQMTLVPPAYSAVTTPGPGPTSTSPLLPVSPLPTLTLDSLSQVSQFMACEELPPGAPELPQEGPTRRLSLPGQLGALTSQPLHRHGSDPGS
Series [21] has as its system Salmonella typhimurium. Description: Mutagenicity in Salmonella typhimurium TA1535 at 30 to 5000 ug incubated for 48 hrs in presence of liver S9 fraction by AMES test. It is filed as toxicity, organism-based, Salmonella enterica subsp. enterica serovar Typhimurium. The conditions noted are these: s9, 48 h, dose 30-5000 µg.
Series [22] relates to Salmonella typhimurium. Description: Mutagenicity in Salmonella typhimurium TA98 at 30 to 5000 ug incubated for 48 hrs in presence of liver S9 fraction by AMES test. It is filed as toxicity, organism-based, Salmonella enterica subsp. enterica serovar Typhimurium. The conditions noted are these: s9, 48 h, dose 30-5000 µg.
The subject of series [23] is Salmonella typhimurium. In words: Mutagenicity in Salmonella typhimurium TA100 at 30 to 5000 ug incubated for 48 hrs in presence of liver S9 fraction by AMES test. As to conditions: s9, 48 h, dose 30-5000 µg. It is filed as toxicity, organism-based, Salmonella enterica subsp. enterica serovar Typhimurium.
For series [24], the target named is Leucine-rich repeat serine/threonine-protein kinase 2 (Homo sapiens) (UniProt Q5S007). In words: Ex vivo inhibition of LRRK2 in human PBMC assessed as unbound concentration required for reduction in LRRK2 phosphorylation at Ser935 residue incubated for 90 mins by MSD assay. Type of series: cell-based.
Sequence of Leucine-rich repeat serine/threonine-protein kinase 2 (Homo sapiens) (Q5S007 whole entry): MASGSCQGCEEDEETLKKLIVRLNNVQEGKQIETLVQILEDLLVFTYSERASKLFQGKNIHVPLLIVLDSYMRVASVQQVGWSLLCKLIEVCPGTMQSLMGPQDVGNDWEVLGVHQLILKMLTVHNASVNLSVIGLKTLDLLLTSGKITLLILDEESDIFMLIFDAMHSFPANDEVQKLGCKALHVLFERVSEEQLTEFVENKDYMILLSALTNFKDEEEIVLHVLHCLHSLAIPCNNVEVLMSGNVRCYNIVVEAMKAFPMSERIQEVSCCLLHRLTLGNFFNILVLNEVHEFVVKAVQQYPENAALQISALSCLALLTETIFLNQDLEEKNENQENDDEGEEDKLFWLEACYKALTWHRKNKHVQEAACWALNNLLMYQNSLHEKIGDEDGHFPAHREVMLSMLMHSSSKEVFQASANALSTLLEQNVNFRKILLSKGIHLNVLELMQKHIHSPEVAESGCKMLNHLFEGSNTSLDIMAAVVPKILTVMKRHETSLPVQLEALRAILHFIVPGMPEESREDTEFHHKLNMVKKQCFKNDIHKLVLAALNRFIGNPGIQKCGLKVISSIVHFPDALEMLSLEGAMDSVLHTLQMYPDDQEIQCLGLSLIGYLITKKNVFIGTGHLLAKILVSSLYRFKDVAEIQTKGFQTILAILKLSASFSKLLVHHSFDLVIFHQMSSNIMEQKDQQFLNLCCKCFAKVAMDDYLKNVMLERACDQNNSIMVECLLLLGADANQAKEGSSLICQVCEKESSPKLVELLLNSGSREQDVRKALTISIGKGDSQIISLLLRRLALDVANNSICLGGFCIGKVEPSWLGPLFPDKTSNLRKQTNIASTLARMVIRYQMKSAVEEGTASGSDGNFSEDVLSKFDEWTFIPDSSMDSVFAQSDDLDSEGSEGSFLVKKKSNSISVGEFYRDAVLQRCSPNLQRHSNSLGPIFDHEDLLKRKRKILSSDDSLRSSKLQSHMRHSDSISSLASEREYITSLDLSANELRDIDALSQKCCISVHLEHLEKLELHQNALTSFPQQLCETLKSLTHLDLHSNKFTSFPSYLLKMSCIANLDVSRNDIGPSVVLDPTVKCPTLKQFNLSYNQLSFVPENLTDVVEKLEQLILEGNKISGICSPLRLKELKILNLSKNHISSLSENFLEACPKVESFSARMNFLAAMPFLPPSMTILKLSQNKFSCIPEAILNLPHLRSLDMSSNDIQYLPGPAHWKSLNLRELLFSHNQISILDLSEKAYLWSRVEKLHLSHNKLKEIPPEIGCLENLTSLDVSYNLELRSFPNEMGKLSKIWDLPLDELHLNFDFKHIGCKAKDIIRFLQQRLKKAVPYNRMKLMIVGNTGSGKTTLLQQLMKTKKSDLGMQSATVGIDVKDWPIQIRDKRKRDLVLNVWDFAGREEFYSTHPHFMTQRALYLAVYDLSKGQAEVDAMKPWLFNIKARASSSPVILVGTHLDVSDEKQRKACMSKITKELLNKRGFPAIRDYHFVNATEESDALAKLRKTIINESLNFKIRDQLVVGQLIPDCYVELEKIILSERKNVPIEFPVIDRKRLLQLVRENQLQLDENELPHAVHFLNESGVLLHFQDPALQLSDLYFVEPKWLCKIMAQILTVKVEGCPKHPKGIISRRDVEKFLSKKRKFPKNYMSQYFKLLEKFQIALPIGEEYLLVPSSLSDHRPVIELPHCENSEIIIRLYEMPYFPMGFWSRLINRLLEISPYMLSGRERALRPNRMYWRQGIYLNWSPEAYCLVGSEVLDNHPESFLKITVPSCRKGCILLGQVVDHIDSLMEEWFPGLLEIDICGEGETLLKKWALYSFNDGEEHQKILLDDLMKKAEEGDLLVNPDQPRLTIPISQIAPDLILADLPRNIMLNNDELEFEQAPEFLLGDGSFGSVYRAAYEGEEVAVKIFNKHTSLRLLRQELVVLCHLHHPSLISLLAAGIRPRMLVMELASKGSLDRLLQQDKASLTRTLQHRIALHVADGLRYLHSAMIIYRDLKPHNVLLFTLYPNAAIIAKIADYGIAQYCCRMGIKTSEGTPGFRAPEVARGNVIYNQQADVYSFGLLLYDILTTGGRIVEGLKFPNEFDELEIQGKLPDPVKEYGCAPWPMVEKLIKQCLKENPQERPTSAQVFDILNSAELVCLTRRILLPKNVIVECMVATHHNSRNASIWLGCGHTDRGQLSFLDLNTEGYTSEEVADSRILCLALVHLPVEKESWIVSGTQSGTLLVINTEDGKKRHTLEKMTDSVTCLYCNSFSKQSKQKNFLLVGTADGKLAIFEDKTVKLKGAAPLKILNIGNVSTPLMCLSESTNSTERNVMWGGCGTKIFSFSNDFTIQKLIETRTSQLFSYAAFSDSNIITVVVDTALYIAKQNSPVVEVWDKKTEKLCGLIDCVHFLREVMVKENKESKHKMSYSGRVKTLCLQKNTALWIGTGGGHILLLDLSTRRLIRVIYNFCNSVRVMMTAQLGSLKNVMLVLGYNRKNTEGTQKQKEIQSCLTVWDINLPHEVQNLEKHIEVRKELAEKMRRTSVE
The nature of series [25]: Thermodynamic solubility of the compound in FaSSIF measured after 24 hrs by reverse phase UPLC analysis. As to conditions: read-out: Therm_solubility. It is filed as physicochemical.
Series [26] concerns mouse Bcrp. Description: Apparent permeability in mouse Bcrp-transfected dog MDCK-II cells at 0.1 to 1 uM measured after 3 hrs by LC/MS/MS analysis. Type of series: ADME, cell-based, Canis lupus familiaris. The conditions noted are these: dose 0.1-1 µM.
Series [27] in a line: Total plasma clearance in Rhesus monkey at 0.1 mg/kg, iv by LC-MS/MS analysis. It is filed as ADME, organism-based, Macaca mulatta.
The nature of series [28]: MRT in Rhesus monkey at 0.1 mg/kg, iv by LC-MS/MS analysis. It is filed as ADME, organism-based, Macaca mulatta. As to conditions: in vivo.
In series [29] the target is MAP/microtubule affinity-regulating kinase 3 (Homo sapiens, UniProt P27448). In words: Inhibition of MARK3 (unknown origin).
Sequence of MAP/microtubule affinity-regulating kinase 3 (P27448 whole entry): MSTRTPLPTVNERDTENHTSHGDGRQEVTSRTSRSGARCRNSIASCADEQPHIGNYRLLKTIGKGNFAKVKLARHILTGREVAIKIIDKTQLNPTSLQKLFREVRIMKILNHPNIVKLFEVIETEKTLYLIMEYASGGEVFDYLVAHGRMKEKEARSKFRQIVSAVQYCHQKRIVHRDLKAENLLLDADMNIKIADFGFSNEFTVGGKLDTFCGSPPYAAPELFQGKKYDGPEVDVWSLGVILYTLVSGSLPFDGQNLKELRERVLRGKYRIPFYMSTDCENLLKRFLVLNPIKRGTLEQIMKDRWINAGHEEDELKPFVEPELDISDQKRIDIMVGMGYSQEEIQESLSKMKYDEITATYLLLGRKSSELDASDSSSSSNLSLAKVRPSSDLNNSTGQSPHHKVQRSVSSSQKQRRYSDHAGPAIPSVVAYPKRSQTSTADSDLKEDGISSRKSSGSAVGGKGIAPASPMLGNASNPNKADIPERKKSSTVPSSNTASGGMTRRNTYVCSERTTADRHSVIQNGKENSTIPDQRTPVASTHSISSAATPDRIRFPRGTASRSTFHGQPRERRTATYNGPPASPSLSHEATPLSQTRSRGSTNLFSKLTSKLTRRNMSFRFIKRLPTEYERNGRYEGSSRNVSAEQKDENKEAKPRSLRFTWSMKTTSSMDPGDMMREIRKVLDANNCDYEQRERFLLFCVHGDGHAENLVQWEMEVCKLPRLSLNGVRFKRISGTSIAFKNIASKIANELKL
Series [30] can be described thus: Toxicity in rat assessed as drug tolerability at 10 to 75 mg/kg, po bid administered for 4 days. Type of series: organism-based. As to conditions: in vivo, 96 h, dose 10-75 mg/kg, time 4 day.
Series [31] can be described thus: AUC in rat at 10 to 75 mg/kg, po bid administered for 4 days. It is filed as ADME, organism-based. On the set-up: time 4 day. The conditions noted are these: in vivo, 96 h, dose 10-75 mg/kg.
For the next series, the system named is CYP1A1. In words: Toxicity in rat assessed as fold induction of CYP1A1 transcriptional activity in liver at 10 to 75 mg/kg, po bid administered for 4 days relative to control. The conditions noted are these: dose 10-75 mg/kg, time 4 day, read-out: FC. Type of series: organism-based.
In another series the test system is GSTA5. In words: Toxicity in rat assessed as fold increase in GSTA5 transcriptional activity in liver at 75 mg/kg, po bid administered for 4 days relative to control. It is filed as organism-based. As to conditions: time 4 day, read-out: FC.
Another series has as its system UGT1A6. Description: Toxicity in rat assessed as fold increase in UGT1A6 transcriptional activity in liver at 75 mg/kg, po bid administered for 4 days relative to control. The conditions noted are these: time 4 day, read-out: FC. It is filed as organism-based.
A short description of series [32]: Toxicity in rat assessed as elevation of PXR gene expression at 10 to 75 mg/kg, po bid administered for 4 days. The conditions noted are these: in vivo, 96 h, dose 10-75 mg/kg, time 4 day. Type of series: organism-based.
Series [33] in a line: Toxicity in rat assessed as elevation of AhR gene expression at 10 to 75 mg/kg, po bid administered for 4 days. Type of series: organism-based. As to conditions: in vivo, 96 h, dose 10-75 mg/kg, time 4 day.
Series [34] is described as follows: Toxicity in rat assessed as elevation of inflammatory response related gene expression at 10 to 75 mg/kg, po bid administered for 4 days. It is filed as organism-based. As to conditions: in vivo, 96 h, dose 10-75 mg/kg, time 4 day.
For series [35], the target named is T1, Natriuretic peptides A (Homo sapiens) (UniProt P01160).
T1 sequence (whole entry): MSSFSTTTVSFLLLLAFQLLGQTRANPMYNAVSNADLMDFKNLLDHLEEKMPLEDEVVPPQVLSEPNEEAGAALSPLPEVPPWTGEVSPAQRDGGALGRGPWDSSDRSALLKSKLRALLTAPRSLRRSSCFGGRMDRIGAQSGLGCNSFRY
In words: Agonist activity at ANF (unknown origin) at 10 uM. As to conditions: filed as agonist.

Molecules are shown by their SMILES. pIC50: −log10 of the molar value. Values after ≈ are worked out from the molar mass of the structure shown.

For the molecule `C[C@@H]1CN(c2cc(-c3n[nH]c4ccc(OC5(C)CC5)cc34)ncn2)C[C@H](C)O1` [MLi-2], the Kp uu at 4 h, 2.5 µM in series [1] amounted to 0.49. Further, the values for the Kp uu at 2 h in series [2] and in [3] were 0.37 and 0.7, respectively. Also, in [4], the inhibition in vivo at 10 mg/kg came to 93%.
For the molecule `Cc1c(Nc2ncc3cc(Cl)c(C4CCN([C@@H]5COC[C@@H]5O)CC4)cc3n2)cnn1[C@@H]1CC1(F)F`, the CL was found to be 486 mL/min/kg in [5], 480 mL/min/kg in series [11] and 205 mL/min/kg in series [15]. Moreover, the Kp uu at 4 h, 2.5 µM in series [1] came to 0.43. For the same molecule, the efflux ratio at 3 h, up to 1 µM in the series on rat Mdr1a (P-gp) [6] is 4.3; in the series on mouse Bcrp [19] it was 4.1. Moreover, in the series with rat Mdr1a (P-gp) [7], the Papp A→B at 3 h, up to 1 µM was 31 ×10⁻⁶ cm/s. For the same molecule, the CLint scaled at 0.3 µM amounted to 114 mL/min/kg in series [8], 464 mL/min/kg in [9] and 160 mL/min/kg in series [13]. Further, the clearance in series [10] came to 28 mL/min/kg; in [14] it was 15 mL/min/kg; in series [27] it was 29 mL/min/kg. Further, the MRT in [12] was 3.7 h; in series [16], 16 h; in series [28], 4.8 h. The bioavailability in series [17] turned out to be 64%; in [18] it was 65%. Besides, the negative-log IC50 (pIC50) in series [20] was 5.21; in series [29], 5.24. Moreover, the Activity result (with Salmonella typhimurium [21]; in the series with Salmonella typhimurium [22]; with Salmonella typhimurium [23]; in series [30]; in series [32]; in [33]) was “Non-Toxic” in each case. Besides, the Activity result was “Non-Toxic” in [34] and 60% in series [35]. Also, the fIC50 in series [24] was 2.6 nM. The solubility thermodynamic at 24 h in series [25] amounted to 30 µg/mL (≈ 59.4 µM). In addition, the apparent permeability coefficient (Papp) at 3 h, up to 1 µM in the series with mouse Bcrp [26] turned out to be 30 ×10⁻⁶ cm/s. This molecule also displayed an AUC in series [31] of 16 µM·h. The values for the fold induction at 96 h in the series on CYP1A1, with GSTA5 and with UGT1A6 were 3, 5 and 2.5, respectively.

Usually inhibition in vivo stands for the drop in the measured response relative to a control, in per cent. As usually defined, the efflux ratio is a quotient of directional permeabilities that is used to spot active efflux. In general, Papp A→B refers to how fast a substance crosses the layer from the apical side. As usually defined, the clearance is the rate of elimination divided by the concentration. What is called MRT is a mean duration of stay, worked out from the concentration-time curve. What is called bioavailability is the share of a dose that reaches the circulation, judged against a reference dose that is usually intravenous. In general, pIC50 refers to the IC50 on a negative log10 scale, so that one unit is a factor of ten. As a reminder, the Papp is a coefficient for how fast a substance crosses the barrier. One may read the AUC as the area under the concentration-time curve, a measure of exposure.

The record behind these values is ChEMBL document CHEMBL5042510, “Structure-Guided Discovery of Aminoquinazolines as Brain-Penetrant and Selective LRRK2 Inhibitors” (J Med Chem, 2022).
